From PubChem BioAssay (NCI)
“And” between values parts separate entries of the source, which are not always exact repeats. Equal values may be shown once.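 Results reflect a 48-hour exposure of cells in 96-well plates to compound at five concentrations. GI50 marks 50% less growth. TGI denotes the concentration required for complete inhibition of growth.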

Test system: SK-MEL-2 melanoma
Assay: growth of human tumour cells (NCI), 48 h

In the case of `CC(=O)c1c(-c2ccc(Cl)cc2)c(C#N)c(=S)n(C2OC(CO)C(O)C(O)C2O)c1-c1ccccc1` (stereo not drawn), the GI50 is reported as > 84.5 µM and 35 µM.

Going from `CC(=O)c1c(-c2ccc(Cl)cc2)c(C#N)c(=S)n(C2OC(CO)C(O)C(O)C2O)c1-c1ccccc1` (stereo not drawn) to `CN(C)C=Nc1ccc2c3c(cccc13)-c1ccccc1-2`, the TGI falls from > 100 µM to 31.1 µM.

`COC(=O)c1ccc2cc(O)c(O)cc2c1` and `COC(=O)C1C(O)C(C)C(O)C(C)(O)C=C(C)C2=C3C(=C(C)C(=O)c4c(O)c(c(C)c(OC(C)=O)c43)NC(=O)C(C)=C/C=C\C(C)(O)C(O)C(C)C1O)OCO2` (stereo not drawn) cannot be ordered by TGI: > 100 µM for the first, > 100 µM for the second.

Test system: SK-MEL-28 melanoma
Assay: growth of human tumour cells (NCI), 48 h

First: CC(=O)c1c(-c2ccc(Cl)cc2)c(C#N)c(=S)n(C2OC(CO)C(O)C(O)C2O)c1-c1ccccc1 (stereo not drawn)
Second: CN(C)C=Nc1ccc2c3c(cccc13)-c1ccccc1-2
The TGI of the first is higher: > 100 µM for the first, 31.9 µM for the second.

`COC(=O)c1ccc2cc(O)c(O)cc2c1` and `COC(=O)C1C(O)C(C)C(O)C(C)(O)C=C(C)C2=C3C(=C(C)C(=O)c4c(O)c(c(C)c(OC(C)=O)c43)NC(=O)C(C)=C/C=C\C(C)(O)C(O)C(C)C1O)OCO2` (stereo not drawn) cannot be ordered by TGI: > 100 µM for the first, > 100 µM for the second.

Test system: SK-MEL-5 melanoma
Assay: growth of human tumour cells (NCI), 48 h

In the case of `CC(=O)c1c(-c2ccc(Cl)cc2)c(C#N)c(=S)n(C2OC(CO)C(O)C(O)C2O)c1-c1ccccc1` (stereo not drawn), the GI50 is reported as 31.8 µM and > 100 µM.

First: CC(=O)c1c(-c2ccc(Cl)cc2)c(C#N)c(=S)n(C2OC(CO)C(O)C(O)C2O)c1-c1ccccc1 (stereo not drawn)
Second: CN(C)C=Nc1ccc2c3c(cccc13)-c1ccccc1-2
The TGI of the first is higher: > 100 µM for the first, 28.1 µM for the second.

Going from `COC(=O)c1ccc2cc(O)c(O)cc2c1` to `COC(=O)C1C(O)C(C)C(O)C(C)(O)C=C(C)C2=C3C(=C(C)C(=O)c4c(O)c(c(C)c(OC(C)=O)c43)NC(=O)C(C)=C/C=C\C(C)(O)C(O)C(C)C1O)OCO2` (stereo not drawn), the TGI falls from > 70.2 µM to 47.7 µM.

Test system: SK-OV-3 ovarian
Assay: growth of human tumour cells (NCI), 48 h

Compared with `CC(=O)c1c(-c2ccc(Cl)cc2)c(C#N)c(=S)n(C2OC(CO)C(O)C(O)C2O)c1-c1ccccc1` (stereo not drawn), `CN(C)C=Nc1ccc2c3c(cccc13)-c1ccccc1-2` is lower in TGI: > 100 µM for the first, 26.5 µM for the second.

`COC(=O)c1ccc2cc(O)c(O)cc2c1` and `COC(=O)C1C(O)C(C)C(O)C(C)(O)C=C(C)C2=C3C(=C(C)C(=O)c4c(O)c(c(C)c(OC(C)=O)c43)NC(=O)C(C)=C/C=C\C(C)(O)C(O)C(C)C1O)OCO2` (stereo not drawn) cannot be ordered by TGI: > 100 µM for the first, > 100 µM for the second.

Test system: SN12C renal
Assay: growth of human tumour cells (NCI), 48 h

First: CC(=O)c1c(-c2ccc(Cl)cc2)c(C#N)c(=S)n(C2OC(CO)C(O)C(O)C2O)c1-c1ccccc1 (stereo not drawn)
Second: CN(C)C=Nc1ccc2c3c(cccc13)-c1ccccc1-2
The TGI of the first is higher: > 100 µM for the first, 25.1 µM for the second.

`COC(=O)c1ccc2cc(O)c(O)cc2c1` and `COC(=O)C1C(O)C(C)C(O)C(C)(O)C=C(C)C2=C3C(=C(C)C(=O)c4c(O)c(c(C)c(OC(C)=O)c43)NC(=O)C(C)=C/C=C\C(C)(O)C(O)C(C)C1O)OCO2` (stereo not drawn) cannot be ordered by TGI: > 100 µM for the first, > 100 µM for the second.

Test system: SNB-19 CNS
Assay: growth of human tumour cells (NCI), 48 h

`CC(=O)c1c(-c2ccc(Cl)cc2)c(C#N)c(=S)n(C2OC(CO)C(O)C(O)C2O)c1-c1ccccc1` (stereo not drawn) was tested, and the GI50 was 34.8 µM and > 100 µM.

First: CC(=O)c1c(-c2ccc(Cl)cc2)c(C#N)c(=S)n(C2OC(CO)C(O)C(O)C2O)c1-c1ccccc1 (stereo not drawn)
Second: CN(C)C=Nc1ccc2c3c(cccc13)-c1ccccc1-2
The TGI of the first is higher: > 100 µM for the first, 27.4 µM for the second.

`COC(=O)c1ccc2cc(O)c(O)cc2c1` and `COC(=O)C1C(O)C(C)C(O)C(C)(O)C=C(C)C2=C3C(=C(C)C(=O)c4c(O)c(c(C)c(OC(C)=O)c43)NC(=O)C(C)=C/C=C\C(C)(O)C(O)C(C)C1O)OCO2` (stereo not drawn) cannot be ordered by TGI: > 100 µM for the first, > 100 µM for the second.

Test system: SNB-75 CNS
Assay: growth of human tumour cells (NCI), 48 h

Compared with `CC(=O)c1c(-c2ccc(Cl)cc2)c(C#N)c(=S)n(C2OC(CO)C(O)C(O)C2O)c1-c1ccccc1` (stereo not drawn), `CN(C)C=Nc1ccc2c3c(cccc13)-c1ccccc1-2` is lower in TGI: > 100 µM for the first, 28.9 µM for the second.

`COC(=O)c1ccc2cc(O)c(O)cc2c1` and `COC(=O)C1C(O)C(C)C(O)C(C)(O)C=C(C)C2=C3C(=C(C)C(=O)c4c(O)c(c(C)c(OC(C)=O)c43)NC(=O)C(C)=C/C=C\C(C)(O)C(O)C(C)C1O)OCO2` (stereo not drawn) cannot be ordered by TGI: > 100 µM for the first, > 100 µM for the second.

Test system: SR leukemia
Assay: growth of human tumour cells (NCI), 48 h

With `CC(=O)c1c(-c2ccc(Cl)cc2)c(C#N)c(=S)n(C2OC(CO)C(O)C(O)C2O)c1-c1ccccc1` (stereo not drawn) the TGI was 61.8 µM and > 100 µM.

First: COC(=O)c1ccc2cc(O)c(O)cc2c1
Second: CN(C)C=Nc1ccc2c3c(cccc13)-c1ccccc1-2
The TGI of the first is higher: > 60 µM for the first, 26.3 µM for the second.

For `COC(=O)C1C(O)C(C)C(O)C(C)(O)C=C(C)C2=C3C(=C(C)C(=O)c4c(O)c(c(C)c(OC(C)=O)c43)NC(=O)C(C)=C/C=C\C(C)(O)C(O)C(C)C1O)OCO2` (stereo not drawn), the TGI was > 100 µM.

Test system: SW-620 colon
Assay: growth of human tumour cells (NCI), 48 h

`CC(=O)c1c(-c2ccc(Cl)cc2)c(C#N)c(=S)n(C2OC(CO)C(O)C(O)C2O)c1-c1ccccc1` (stereo not drawn) and `COC(=O)C1C(O)C(C)C(O)C(C)(O)C=C(C)C2=C3C(=C(C)C(=O)c4c(O)c(c(C)c(OC(C)=O)c43)NC(=O)C(C)=C/C=C\C(C)(O)C(O)C(C)C1O)OCO2` (stereo not drawn) cannot be ordered by TGI: > 100 µM for the first, > 100 µM for the second.

In the case of `COC(=O)c1ccc2cc(O)c(O)cc2c1`, the TGI is reported as > 100 µM.

Test system: T-47D breast
Assay: growth of human tumour cells (NCI), 48 h

Going from `CC(=O)c1c(-c2ccc(Cl)cc2)c(C#N)c(=S)n(C2OC(CO)C(O)C(O)C2O)c1-c1ccccc1` (stereo not drawn) to `CN(C)C=Nc1ccc2c3c(cccc13)-c1ccccc1-2`, the TGI falls from > 100 µM to 31.3 µM.

`COC(=O)c1ccc2cc(O)c(O)cc2c1` and `COC(=O)C1C(O)C(C)C(O)C(C)(O)C=C(C)C2=C3C(=C(C)C(=O)c4c(O)c(c(C)c(OC(C)=O)c43)NC(=O)C(C)=C/C=C\C(C)(O)C(O)C(C)C1O)OCO2` (stereo not drawn) cannot be ordered by TGI: > 100 µM for the first, > 100 µM for the second.

Test system: TK-10 renal
Assay: growth of human tumour cells (NCI), 48 h

First: CC(=O)c1c(-c2ccc(Cl)cc2)c(C#N)c(=S)n(C2OC(CO)C(O)C(O)C2O)c1-c1ccccc1 (stereo not drawn)
Second: CN(C)C=Nc1ccc2c3c(cccc13)-c1ccccc1-2
The TGI of the first is higher: > 100 µM for the first, 26.7 µM for the second.

`COC(=O)c1ccc2cc(O)c(O)cc2c1` and `COC(=O)C1C(O)C(C)C(O)C(C)(O)C=C(C)C2=C3C(=C(C)C(=O)c4c(O)c(c(C)c(OC(C)=O)c43)NC(=O)C(C)=C/C=C\C(C)(O)C(O)C(C)C1O)OCO2` (stereo not drawn) cannot be ordered by TGI: > 100 µM for the first, > 100 µM for the second.

Test system: U251 CNS
Assay: growth of human tumour cells (NCI), 48 h

For `CC(=O)c1c(-c2ccc(Cl)cc2)c(C#N)c(=S)n(C2OC(CO)C(O)C(O)C2O)c1-c1ccccc1` (stereo not drawn), the GI50 was 42.8 µM and > 100 µM.

Going from `CC(=O)c1c(-c2ccc(Cl)cc2)c(C#N)c(=S)n(C2OC(CO)C(O)C(O)C2O)c1-c1ccccc1` (stereo not drawn) to `CN(C)C=Nc1ccc2c3c(cccc13)-c1ccccc1-2`, the TGI falls from > 100 µM to 26.2 µM.

`COC(=O)c1ccc2cc(O)c(O)cc2c1` and `COC(=O)C1C(O)C(C)C(O)C(C)(O)C=C(C)C2=C3C(=C(C)C(=O)c4c(O)c(c(C)c(OC(C)=O)c43)NC(=O)C(C)=C/C=C\C(C)(O)C(O)C(C)C1O)OCO2` (stereo not drawn) cannot be ordered by TGI: > 100 µM for the first, > 100 µM for the second.

Test system: UACC-257 melanoma
Assay: growth of human tumour cells (NCI), 48 h

First: CC(=O)c1c(-c2ccc(Cl)cc2)c(C#N)c(=S)n(C2OC(CO)C(O)C(O)C2O)c1-c1ccccc1 (stereo not drawn)
Second: CN(C)C=Nc1ccc2c3c(cccc13)-c1ccccc1-2
The TGI of the first is higher: > 100 µM for the first, 31.9 µM for the second.

Compared with `COC(=O)c1ccc2cc(O)c(O)cc2c1`, `COC(=O)C1C(O)C(C)C(O)C(C)(O)C=C(C)C2=C3C(=C(C)C(=O)c4c(O)c(c(C)c(OC(C)=O)c43)NC(=O)C(C)=C/C=C\C(C)(O)C(O)C(C)C1O)OCO2` (stereo not drawn) is lower in TGI: > 96.7 µM for the first, 78 µM for the second.

Test system: UACC-62 melanoma
Assay: growth of human tumour cells (NCI), 48 h

For `CC(=O)c1c(-c2ccc(Cl)cc2)c(C#N)c(=S)n(C2OC(CO)C(O)C(O)C2O)c1-c1ccccc1` (stereo not drawn), the GI50 was 4.85 µM and 21.9 µM.

Compared with `CC(=O)c1c(-c2ccc(Cl)cc2)c(C#N)c(=S)n(C2OC(CO)C(O)C(O)C2O)c1-c1ccccc1` (stereo not drawn), `CN(C)C=Nc1ccc2c3c(cccc13)-c1ccccc1-2` is lower in TGI: > 100 µM for the first, 38.8 µM for the second.

`COC(=O)c1ccc2cc(O)c(O)cc2c1` and `COC(=O)C1C(O)C(C)C(O)C(C)(O)C=C(C)C2=C3C(=C(C)C(=O)c4c(O)c(c(C)c(OC(C)=O)c43)NC(=O)C(C)=C/C=C\C(C)(O)C(O)C(C)C1O)OCO2` (stereo not drawn) cannot be ordered by TGI: > 79.3 µM for the first, > 100 µM for the second.

Test system: UO-31 renal
Assay: growth of human tumour cells (NCI), 48 h

First: COC(=O)c1ccc2cc(O)c(O)cc2c1
Second: CN(C)C=Nc1ccc2c3c(cccc13)-c1ccccc1-2
The TGI of the first is 2.8-fold higher: 55.3 µM for the first, 19.6 µM for the second.

With `COC(=O)C1C(O)C(C)C(O)C(C)(O)C=C(C)C2=C3C(=C(C)C(=O)c4c(O)c(c(C)c(OC(C)=O)c43)NC(=O)C(C)=C/C=C\C(C)(O)C(O)C(C)C1O)OCO2` (stereo not drawn) the TGI was > 100 µM.
